Test results reported in US20230255869A1, “FATTY ACID DERIVATIVE, PRODUCTION PROCESS THEREFOR, HAIR COMPOSITION AND HAIR-TREATMENT METHOD” (CHEMYUNION LTDA., priority 2020, published 2023).

What was measured:
[1] = Evaluation of the cuticular region of hair fibers by scanning electron microscopy (SEM); conditions: conditioner plus 1% active; bleached and dyed fibers; 1100x
Description: The tests to evaluate the effectiveness of the shine on locks of hair were carried out with standardized fibers of straight, dark brown hair, provided by International Hair Importers— USA.
The locks were washed with anti-residue shampoo and dried naturally (24±1h).
After the pre-treatment, the locks of hair from the groups G1, G2, G3 and G4 (average weight of 2 g per lock), were subjected to the process of chemical bleaching.
To carry out the process, a bleaching mixture was prepared with 15 g of bleaching powder and 30 g of hydrogen peroxide 30 volumes. This mixture was evenly applied to the locks of hair. After application, the locks were wrapped in aluminum foil and left to rest for 45 minutes. After the time of action of the bleaching mixture, the locks were washed and rinsed abundantly with running water (2 minutes) and received the application of a standard conditioner. After 2 minutes of rest, for the conditioner to work, the locks were rinsed again. The locks were dried with hot air from the dryer.
The whole process was repeated two more times, totaling three bleachings. […]
The evaluation of the surface of the hair fibers (cuticle region) was performed using a scanning electron microscope (SEM), model 6460 LV (JEOL). The study is based on capturing images (1100× magnification) of 10 capillary fibers randomly selected from the evaluated groups. […]

[2] = Shine evaluation of hair locks treated with conditioner (SAMBA Hair System, Reich-Robbins luster)
Description: The tests for evaluating the effectiveness in the shine of locks of hair were carried out with standardized fibers of CaucasianU, brown, straight hair, supplied by International Hair Importers— USA, model most used for these types of tests (Table 1).
The locks were washed with anti-residue shampoo and dried naturally (24±1h) before treatment.
The formulations were applied according to the protocol described below: For the locks in group G1 (Control), shampoo was applied in a standardized amount of SLES solution (8.1% active) on wet hair and gently massaged for 1 minute. Then rinsed for 1 minute.
For locks in group G2 (Placebo) and with the actives: G3 (Ricinoleamide), G4 (Cyclometicone), G5 (Phenyltrimethicone), G6 (Dimethicone), G7 (Aminopropyl phenyltrimethicone) and G8 (Propylene glycol dibenzoate) and G9 (Ricinoleate mono- and diesters), shampoo was applied in a standardized amount of placebo/standard shampoo to wet hair and gently massaged for 1 minute. Then rinsed for 1 minute. After rinsing the hair, the conditioner (3.0±0.2 g) was applied to the entire length of the hair, massaging and untangling the hair. Leaving the product to act for 2 minutes and it was rinsed for 1 minute. This protocol was repeated once, and then four more times, for all groups according to their specific treatment, described in Table 1.
The locks were kept in a controlled environment at 23±2° C. and 50±5% relative humidity (R. H.), for at least 24 hours before the tests were started. The entire test period was carried out under the same environmental conditions.
The evaluation of hair shine was performed on three locks per group, using the equipment SAMBA Hair System of the company Bossa Nova Technologies, USA.
The locks of hair were positioned on a cylindrical support that slides into the interior of the equipment, in order to carry out the measurements.
The equipment successively captures two parallel images of the locks of hair. Specular image and diffuse image. The specular image is formed only by the light reflected by the hair surfaces (first and second) of reflection. This image contains the brightness information. The diffused image (diffuse) is formed only by the scattered light coming from inside the hair.
The SAMBA system program calculates parameters associated with the reflection and refraction of light, the most used parameter is Luster, which evaluates the real state and quality of the brightness of the object under study. This parameter can be calculated simultaneously through different formulas, and for this study the analysis data obtained by the Reich-Robbins formula was used.
For the statistical evaluation of the tests, analysis of variance (ANOVA) was used. Tukey's test was applied when analysis of variance detected significant differences between the groups. For comparative tests between before and after the same sample, the t-Test (Student) was used.

| Compound | integrity of the cuticular region (subjective SEM evaluation) vs Control and Placebo [1] | difference of shine value greater than Amino pfenyltrimethicone group ([2]; conditioner with 1% active, one treatment, vs Amino pfenyltrimethicone (1%)) [%] | difference of shine value (after minus before one treatment) greater than Control group ([2]; conditioner with 1% active, one treatment, vs Control (SLES wash)) [%] | difference of shine value greater than Cyclomethicone group ([2]; conditioner with 1% active, one treatment, vs Cyclomethicone (1%)) [%] | difference of shine value greater than Dimethicone group ([2]; conditioner with 1% active, one treatment, vs Dimethicone (1%)) [%] | difference of shine value greater than Phenyltrimethicone group ([2]; conditioner with 1% active, one treatment, vs Phenyltrimethicone (1%)) [%] | difference of shine value greater than Placebo group ([2]; conditioner with 1% active, one treatment, vs Placebo conditioner) [%] | difference of shine value greater than Propilene glycol dibenzoate group ([2]; conditioner with 1% active, one treatment, vs Propilene glycol dibenzoate (1%)) [%] | difference of shine value greater than ricinoleate mono- and diesters group ([2]; conditioner with 1% active, one treatment, vs ricinoleate mono- and diesters (1%)) [%] | efficiency in providing increased shine in the first application compared to other compounds ([2]; same concentrations, FIG. 1) |
| --- | --- | --- | --- | --- | --- | --- | --- | --- | --- | --- |
| phenyltrimethicone [reference compound] | preservation of the cuticular region |  |  |  |  |  |  |  |  |  |
| CCCCCC[C@@H](O)C/C=C\CCCCCCCC(N)=O [Ricinoleamide, ricinoleamide] | greater preservation of the cuticular region | 93.4 | 78.4 | 78.4 | 52.7 | 56.7 | 84 | 95.1 | 54.0 | greater efficiency |
